IC50 data for 55 compounds are collected here from PubChem BioAssay AID1159565 (GlaxoSmithKline (GSK), 2015).

The structures appear in SMILES notation.

The first assay relates to T. cruzi-infected H9C2 cardiomyocytes, high-content imaging. Briefly: intracellular T. cruzi amastigote inhibition, imaging, H9C2 host cardiomyocytes, host toxicity (AID 1159565).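 Further: infected cells incubated 72 h after plating.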 Particulars: measured here: H9C2 host cell toxicity.
As for `N#Cc1ccc(C(=O)Nc2cccc(-c3cccc(CN4CCC(O)CC4)c3)c2)cc1`, the IC50 came out at 32000 nM.
As to `COc1cc(OC)cc(C(NS(=O)(=O)c2ccc(Cl)c(C(F)(F)F)c2)c2nccn2C)c1` (stereo not drawn), the half-inhibitory concentration (IC50) was determined as 10000 nM.
`C[C@@H](Oc1cc(-n2cnc3ccc(CC(O)CO)cc32)sc1C(N)=O)c1ccccc1Cl` (stereo partly drawn) yielded an IC50 of 130 nM.
In turn, `O=C(c1ccc(O)c(Cl)c1)N1CCN(c2cnccn2)CC1` registered an IC50 of more than 50000 nM.
On the same count and under the same terms, to `N#Cc1cccc(CNc2ccc(-c3cnn(CC4CC4)c(=O)c3C#N)cc2)c1` belongs more than 50000 nM; to `O=C(Cn1cnc2c(-c3ccccc3)csc2c1=O)N1CCCCC1`, more than 50000 nM; to `Cc1ccc2c(c1)-c1onc(C(=O)N3CCCCC3c3cccnc3)c1CO2` (stereo not drawn), more than 50000 nM.
Take `CCC(CC)C(=O)Nc1ccc(-c2nnc(-c3ccc(OC)cc3)o2)cc1`: the IC50 was more than 50000 nM.
`O=C(c1cccc(Cl)c1Cl)N1CCn2c1nc(-c1ccncc1)cc2=O` came in with an IC50 of more than 50000 nM.
The compound `Cc1[nH]c2ccccc2c(=O)c1Cc1c(C)[nH]c2ccccc2c1=O` gave a half-inhibitory concentration (IC50) of more than 50000 nM.
Consider `CN1CCC(N(C)c2nccc(N3CCN(C(=O)c4cccc(-c5cccnc5)c4)CC3)n2)CC1`, for which the IC50 came to 7900 nM. That is a single-digit micromolar value.
`CCC(=O)Nc1ccc(-c2nc3ccc(Cl)cc3[nH]2)cc1` had an IC50 of more than 50000 nM.
Consider `Cc1cc(N(C)C)nc2ccc(Cc3cnc(N)nc3N)cc12`, for which the IC50 was more than 50000 nM.
In turn, `CN(Cc1nnnn1C1CCN(Cc2ccc(-n3ccnc3)cc2)CC1)c1ccc(F)cc1F` returned a concentration for half-maximal inhibition (IC50) of more than 50000 nM.
Consider `CC(=O)Nc1ccc(Nc2nccc(-c3cnn4ncccc34)n2)cc1C(F)(F)F`, for which the half-inhibitory concentration (IC50) came to 63 nM.
`Cc1ccc(NC(=O)c2ccc([N+](=O)[O-])s2)cc1S(=O)(=O)N1CCOCC1` gave a concentration for half-maximal inhibition (IC50) of 5000 nM.
With `O=C(NCC(c1cccs1)N1CCOCC1)c1ccc([N+](=O)[O-])o1` (stereo not drawn), the IC50 came out at 5000 nM.
`CC(C)Nc1nccc(-c2c(-c3ccc(F)cc3)ncn2C2CCOCC2)n1` yielded a half-inhibitory concentration (IC50) of more than 50000 nM.
Same read-out and setting: to `CCOC(=O)c1noc(N)c1-c1ccccc1` belongs more than 50000 nM.
Compound `COc1ccc(Nc2nc(NC3CCC(O)CC3)ncc2Br)c(C(N)=O)c1` (stereo not drawn) registered a concentration for half-maximal inhibition (IC50) of 790 nM.
In turn, `COc1cccc(C(=O)[C@H]2C[C@@H]2CN(Cc2ccccn2)Cc2ccccn2)c1` yielded an IC50 of 20000 nM.
Compound `Cc1cn[nH]c1C1CCCN(Cc2nc3ccccc3n2C)C1` (stereo not drawn) came in with a concentration for half-maximal inhibition (IC50) of more than 50000 nM.
In turn, `COc1ccc(C(=O)Nc2ccc(NC(=O)CO)cc2)cc1` yielded a half-inhibitory concentration (IC50) of more than 50000 nM.
`Cc1ccc(NC(=O)C(C)n2nc([N+](=O)[O-])c(Br)c2C)cc1Cl` (stereo not drawn) showed a 50% inhibitory concentration (IC50) of more than 50000 nM.
On to `CNc1nc(C)nc(N2CCc3cc(C(=O)NCc4ccc(-c5nccn5C)cc4Cl)ccc32)n1`, for which the half-maximal inhibitory concentration (IC50) is 50000 nM.
On the same count and under the same terms, to `Cc1cc(C)n(-c2nc(NC(C)C)nc(NC(C)(C)C)n2)n1` belongs 200 nM.
Regarding `CC(C)(C)C(=O)Nc1cc(C2CC2)nn1-c1nc2c(c(=O)[nH]1)CCCC2`, the 50% inhibitory concentration (IC50) worked out at 2000 nM.
In turn, `CCCCCNC(=O)c1c[nH]c2ccc(S(=O)(=O)N(C)c3ccc(OCC)cc3)cc2c1=O` had a half-maximal inhibitory concentration (IC50) of more than 50000 nM.

The assay is the same for the next values; noted with them: measured here: amastigotes per cell.
`CCCn1c(NC(=O)Cc2ccc(Cl)cc2)nc2ccccc21` returned a concentration for half-maximal inhibition (IC50) of 1300 nM.
Still for that read-out and setting: to `COc1ccc(CN2CCCCC2c2nc(-c3cccnc3)no2)cc1` (stereo not drawn) belongs 630 nM; to `Cc1cc(=O)n2nc(Oc3ccc(C#N)cc3Cl)sc2n1`, 25000 nM.
In the case of `Cc1ccc2onc(Nc3ccnc(Nc4cccc(S(C)(=O)=O)c4)n3)c2c1`, the IC50 worked out at 400 nM.
Consider `Cc1ccc2sc(NC(=O)Cn3cnc([N+](=O)[O-])n3)nc2c1`, for which the IC50 came out at 500 nM.
The compound `CC(C)(C)Nc1nc(Nc2ccc3c(c2)CS(=O)(=O)C3)nc2[nH]ccc12` showed a concentration for half-maximal inhibition (IC50) of 20000 nM. This IC50 lies about 40-fold higher than the previous one.
For `O=C(Nc1cccc(Cl)c1)Nc1ccc([N+](=O)[O-])cc1Cl`, the concentration for half-maximal inhibition (IC50) is 1600 nM.
`CC(C)c1nn(-c2nc(N)nc(-c3ccccn3)n2)c(N)c1C1CCCCC1` displayed an IC50 of 1300 nM. The IC50 values of the last two compounds are within 1.5-fold of each other.
The same measure, in the same setting: to `COc1cccc(C(=O)[C@H]2C[C@@H]2CN(Cc2cccnc2)Cc2cccnc2)c1` belongs 50 nM.
The compound `Nc1nc(-c2ccccc2)cc(-c2nc3ncccc3[nH]2)n1` registered a 50% inhibitory concentration (IC50) of 1600 nM. This IC50 is about 32-fold higher than that of the compound before.
For `CS(=O)(=O)c1cccc(-c2cnc(N)c3c(-c4ccc(CO)cc4)csc23)c1`, the concentration for half-maximal inhibition (IC50) came to 320 nM.
For `COc1cccc(CN(C)Cc2nc(N)c3c(C)c(C)sc3n2)c1`, the IC50 came to 16000 nM. Against the preceding compound, the IC50 is about 50-fold higher.
Consider `OCC1CCCCN1c1cc(-c2ccccn2)nc(Nc2ccccc2)n1` (stereo not drawn), for which the concentration for half-maximal inhibition (IC50) came to 2000 nM. Against the preceding compound, the IC50 is about 8-fold lower.
Compound `CC(=O)Nc1ccc(-c2csc(NC(=O)c3ccc([N+](=O)[O-])s3)n2)cc1` came in with a 50% inhibitory concentration (IC50) of 100 nM.
For the compound `N#Cc1cccc(CN2CCC(N(Cc3cccnc3)C(=O)c3cc(F)c(F)cc3F)CC2)c1`, the IC50 came to 320 nM. Compared with the last compound, the IC50 is about 3.2-fold higher.
For the compound `O=[N+]([O-])c1ccc(-c2nnn(-c3ccc(Cl)cc3)n2)o1`, the IC50 is 79 nM.
As for `Cc1nccn1C1CCCN(C(=O)c2cc3c(F)cccc3s2)C1` (stereo not drawn), the half-inhibitory concentration (IC50) worked out at 790 nM.
Compound `COc1ccc([N+](=O)[O-])cc1NC(=O)Nc1cccc(Cl)c1` yielded a half-maximal inhibitory concentration (IC50) of 400 nM.
Consider `O=C(Cc1ccccc1)Nc1[nH]nc2sc(C(=O)NC3CCCC3)cc12`, for which the IC50 turned out to be 6300 nM.
On the same count and under the same terms, to `Cc1ccc(S(=O)(=O)Nc2ccc(CN3CCN(C(=O)c4cccc(C#N)c4)CC3)cc2)cc1` belongs 400 nM; to `COc1cccc(CCNC(=O)C(c2cn[nH]c2)N2CCN(c3ccc(Cl)cc3)CC2)c1` (stereo not drawn), 16 nM; to `N#Cc1ccc(Br)cc1[N+](=O)[O-]`, 63 nM.
Regarding `O=C(Nc1ccc(C(=O)N2CCCC2c2ccc3c(c2)OCCCO3)cc1)c1ccco1` (stereo not drawn), the IC50 came out at 630 nM.
Same read-out and setting: to `Cc1ccc(-c2csc(NC(=O)C=Cc3ccc(S(=O)(=O)N4CCOCC4)cc3)n2)o1` belongs 10000 nM; to `Cc1cc(Nc2cc(C3CC3)[nH]n2)nc(N2CCC[C@H]2C(N)=O)n1`, 20 nM.
`COc1cc(NC(=O)Nc2cccc(CNC(=O)OC3CCCCC3)c2)ccc1-c1cnco1` gave an IC50 of 32000 nM.
The compound `CCN(CC)S(=O)(=O)c1ccc(C)c(NC(=O)c2cc(Cl)c3c(c2)OCO3)c1` returned an IC50 of more than 50000 nM.
`N#Cc1ccc(C(=O)Nc2cccc(-c3cccc(CN4CCC(O)CC4)c3)c2)cc1`: the IC50 stood at 7900 nM.
Same read-out and setting: to `COc1cc(OC)cc(C(NS(=O)(=O)c2ccc(Cl)c(C(F)(F)F)c2)c2nccn2C)c1` (stereo not drawn) belongs 3200 nM; to `C[C@@H](Oc1cc(-n2cnc3ccc(CC(O)CO)cc32)sc1C(N)=O)c1ccccc1Cl` (stereo partly drawn), 13000 nM.
`O=C(c1ccc(O)c(Cl)c1)N1CCN(c2cnccn2)CC1` displayed an IC50 of 10000 nM.
On the same count and under the same terms, to `N#Cc1cccc(CNc2ccc(-c3cnn(CC4CC4)c(=O)c3C#N)cc2)c1` belongs 5000 nM; to `O=C(Cn1cnc2c(-c3ccccc3)csc2c1=O)N1CCCCC1`, 3200 nM; to `Cc1ccc2c(c1)-c1onc(C(=O)N3CCCCC3c3cccnc3)c1CO2` (stereo not drawn), 130 nM.
In turn, `CCC(CC)C(=O)Nc1ccc(-c2nnc(-c3ccc(OC)cc3)o2)cc1` gave a half-maximal inhibitory concentration (IC50) of 4000 nM.
As to `O=C(c1cccc(Cl)c1Cl)N1CCn2c1nc(-c1ccncc1)cc2=O`, the IC50 is 320 nM.
For `Cc1[nH]c2ccccc2c(=O)c1Cc1c(C)[nH]c2ccccc2c1=O`, the 50% inhibitory concentration (IC50) was found to be 1000 nM.
`CN1CCC(N(C)c2nccc(N3CCN(C(=O)c4cccc(-c5cccnc5)c4)CC3)n2)CC1` registered a concentration for half-maximal inhibition (IC50) of 1000 nM.
The compound `CCC(=O)Nc1ccc(-c2nc3ccc(Cl)cc3[nH]2)cc1` yielded a half-inhibitory concentration (IC50) of 500 nM.
Same read-out and setting: to `Cc1cc(N(C)C)nc2ccc(Cc3cnc(N)nc3N)cc12` belongs 3200 nM; to `CN(Cc1nnnn1C1CCN(Cc2ccc(-n3ccnc3)cc2)CC1)c1ccc(F)cc1F`, 320 nM.
Take `CC(=O)Nc1ccc(Nc2nccc(-c3cnn4ncccc34)n2)cc1C(F)(F)F`: the IC50 amounted to 200 nM. This IC50 lies about 1.6-fold lower than the previous one.
`Cc1ccc(NC(=O)c2ccc([N+](=O)[O-])s2)cc1S(=O)(=O)N1CCOCC1` showed a 50% inhibitory concentration (IC50) of 250 nM.
As to `O=C(NCC(c1cccs1)N1CCOCC1)c1ccc([N+](=O)[O-])o1` (stereo not drawn), the IC50 came to 16000 nM.
`CC(C)Nc1nccc(-c2c(-c3ccc(F)cc3)ncn2C2CCOCC2)n1` registered an IC50 of 200 nM.
With `CCOC(=O)c1noc(N)c1-c1ccccc1`, the IC50 is more than 50000 nM.
The same measure, in the same setting: to `COc1ccc(Nc2nc(NC3CCC(O)CC3)ncc2Br)c(C(N)=O)c1` (stereo not drawn) belongs 2000 nM.
Take `COc1cccc(C(=O)[C@H]2C[C@@H]2CN(Cc2ccccn2)Cc2ccccn2)c1`: the IC50 worked out at 790 nM.
In turn, `Cc1cn[nH]c1C1CCCN(Cc2nc3ccccc3n2C)C1` (stereo not drawn) yielded an IC50 of 10000 nM.
The compound `COc1ccc(C(=O)Nc2ccc(NC(=O)CO)cc2)cc1` returned an IC50 of more than 50000 nM.
For the compound `Cc1ccc(NC(=O)C(C)n2nc([N+](=O)[O-])c(Br)c2C)cc1Cl` (stereo not drawn), the IC50 turned out to be 3200 nM.
The compound `CNc1nc(C)nc(N2CCc3cc(C(=O)NCc4ccc(-c5nccn5C)cc4Cl)ccc32)n1` came in with a half-maximal inhibitory concentration (IC50) of 5000 nM.
With `Cc1cc(C)n(-c2nc(NC(C)C)nc(NC(C)(C)C)n2)n1`, the IC50 is 500 nM.
Same read-out and setting: to `CC(C)(C)C(=O)Nc1cc(C2CC2)nn1-c1nc2c(c(=O)[nH]1)CCCC2` belongs 130 nM; to `CCCCCNC(=O)c1c[nH]c2ccc(S(=O)(=O)N(C)c3ccc(OCC)cc3)cc2c1=O`, more than 50000 nM.

Usually IC50 stands for the midpoint of a concentration-inhibition curve.
